Experimental data: publication PMC6934184, “Selective DNA-PKcs inhibition extends the therapeutic index of localized radiotherapy and chemotherapy” (The Journal of Clinical Investigation, 2019)

Target: T1, SPHK1 (Homo sapiens, UniProt Q9NYA1)
T1 construct: purchased Thermo Fisher Scientific (Life Technologies) SelectScreen
Experiment: SelectScreen Adapta
Assay type: biochemical
Summary of the method: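 Percent values come from Thermo SelectScreen profiling of NU5455, combining activity and binding assays. CSF1R was run in Z'LYTE format at Km app ATP, and CAMK1 in Adapta format with ATP listed at 10.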

T1 sequence (Q9NYA1 whole entry): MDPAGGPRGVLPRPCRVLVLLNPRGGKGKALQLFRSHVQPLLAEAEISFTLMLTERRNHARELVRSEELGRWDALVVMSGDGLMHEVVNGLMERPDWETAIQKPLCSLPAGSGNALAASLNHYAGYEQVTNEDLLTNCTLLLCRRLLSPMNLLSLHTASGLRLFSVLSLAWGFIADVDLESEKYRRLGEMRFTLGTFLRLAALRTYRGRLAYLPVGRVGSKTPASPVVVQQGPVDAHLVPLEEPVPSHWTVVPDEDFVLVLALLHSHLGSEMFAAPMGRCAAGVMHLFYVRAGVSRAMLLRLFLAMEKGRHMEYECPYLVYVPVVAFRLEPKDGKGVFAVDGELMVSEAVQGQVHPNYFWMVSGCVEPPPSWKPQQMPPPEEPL

Work on `CN(C(=O)CN1CCOCC1)c1ccc2sc3c(-c4cccc5c(=O)cc(N6CC7CCC(C6)O7)oc45)cccc3c2c1` [NU5455] yielded an inhibition at 1 µM of 2.7%.
